{"source": "ChEMBL document CHEMBL3098089", "about": "“Probing the human estrogen receptor-α binding requirements for phenolic mono- and di-hydroxyl compounds: a combined synthesis, binding and docking study” (Bioorg Med Chem, 2014)", "key": {"Estrogen receptor [1]": {"molecular_target": "T1, Estrogen receptor (Homo sapiens, UniProt P03372)", "T1 sequence (P03372 whole entry)": "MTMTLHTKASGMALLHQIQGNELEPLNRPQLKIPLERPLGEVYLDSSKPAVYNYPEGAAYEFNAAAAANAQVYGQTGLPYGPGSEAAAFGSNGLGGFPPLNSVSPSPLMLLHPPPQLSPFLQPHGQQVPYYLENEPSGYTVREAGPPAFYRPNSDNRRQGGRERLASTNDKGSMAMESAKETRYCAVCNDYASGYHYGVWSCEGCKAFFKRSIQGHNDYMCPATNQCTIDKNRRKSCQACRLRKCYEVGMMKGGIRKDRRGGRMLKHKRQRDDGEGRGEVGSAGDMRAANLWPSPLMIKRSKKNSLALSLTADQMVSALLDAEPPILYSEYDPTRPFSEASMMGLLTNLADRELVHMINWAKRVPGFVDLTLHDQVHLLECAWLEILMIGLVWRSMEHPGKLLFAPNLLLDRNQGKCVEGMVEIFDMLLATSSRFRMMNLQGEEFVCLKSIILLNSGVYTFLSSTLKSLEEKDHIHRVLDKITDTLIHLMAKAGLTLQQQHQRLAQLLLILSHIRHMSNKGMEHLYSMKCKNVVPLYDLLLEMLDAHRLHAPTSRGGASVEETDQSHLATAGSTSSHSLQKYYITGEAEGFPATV"}, "Estrogen receptor [2]": {"molecular_target": "T1, Estrogen receptor", "remark": "listed apart in the source"}, "Estrogen receptor beta [3]": {"molecular_target": "T2, Estrogen receptor beta (Homo sapiens, UniProt Q92731)", "T2 sequence (Q92731 whole entry)": "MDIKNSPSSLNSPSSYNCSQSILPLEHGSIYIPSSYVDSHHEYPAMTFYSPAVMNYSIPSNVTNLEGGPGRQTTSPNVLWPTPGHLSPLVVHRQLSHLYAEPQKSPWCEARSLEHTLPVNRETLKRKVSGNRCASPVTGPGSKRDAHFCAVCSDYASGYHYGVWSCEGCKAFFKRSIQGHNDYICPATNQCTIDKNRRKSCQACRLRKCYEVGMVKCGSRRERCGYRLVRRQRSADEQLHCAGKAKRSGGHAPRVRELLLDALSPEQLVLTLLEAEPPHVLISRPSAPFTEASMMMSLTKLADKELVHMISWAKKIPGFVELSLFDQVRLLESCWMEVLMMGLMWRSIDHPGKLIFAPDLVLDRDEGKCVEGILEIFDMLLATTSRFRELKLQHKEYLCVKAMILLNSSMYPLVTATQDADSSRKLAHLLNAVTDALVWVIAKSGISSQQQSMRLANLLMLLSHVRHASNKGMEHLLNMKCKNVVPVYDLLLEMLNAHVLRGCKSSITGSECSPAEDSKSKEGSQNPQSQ"}, "Estrogen receptor beta [4]": {"molecular_target": "T2, Estrogen receptor beta", "remark": "listed apart in the source"}}, "data": [{"smiles": "CC1C[C@H](C)C2(CC[C@H]3[C@@H]4CCc5cc(O)ccc5[C@H]4CC[C@@]32C)O1", "note": "(stereo partly drawn)", "values": [{"measurement": "IC50", "setting": "Estrogen receptor [1]", "value": 484, "unit": "nM"}, {"measurement": "Kd", "setting": "Estrogen receptor [2]", "value": 160, "unit": "nM"}, {"measurement": "IC50", "setting": "Estrogen receptor beta [3]", "value": 111, "unit": "nM"}]}, {"smiles": "CCCOC(=O)[C@H]1CC[C@H]2[C@@H]3CCc4cc(O)ccc4[C@H]3CC[C@]12C", "values": [{"measurement": "IC50", "setting": "Estrogen receptor [1]", "value": 92, "unit": "nM"}, {"measurement": "Kd", "setting": "Estrogen receptor [2]", "value": 320, "unit": "nM"}]}, {"smiles": "CC[C@H](C)C1=CC[C@H]2[C@@H]3CCc4cc(O)ccc4[C@H]3CC[C@]12C", "values": [{"measurement": "IC50", "setting": "Estrogen receptor beta [4]", "value": 70, "unit": "nM"}, {"measurement": "Kd", "setting": "Estrogen receptor [2]", "value": 160, "unit": "nM"}, {"measurement": "IC50", "setting": "Estrogen receptor beta [3]", "value": 88, "unit": "nM"}]}, {"smiles": "C[C@]12CC[C@@H]3c4ccc(O)cc4CC[C@H]3[C@@H]1CC=C2CO", "values": [{"measurement": "IC50", "setting": "Estrogen receptor beta [3]", "value": 6.8, "unit": "nM"}]}, {"smiles": "C[C@@H](CCO)C1=CC[C@H]2[C@@H]3CCc4cc(O)ccc4[C@H]3CC[C@]12C", "values": [{"measurement": "IC50", "setting": "Estrogen receptor beta [4]", "value": 275, "unit": "nM"}, {"measurement": "Kd", "setting": "Estrogen receptor [2]", "value": 320, "unit": "nM"}, {"measurement": "IC50", "setting": "Estrogen receptor beta [3]", "value": 108, "unit": "nM"}]}, {"smiles": "OC[C@H]1CCC[C@@H](c2ccc(O)cc2)CC1", "note": "(racemic)", "values": [{"measurement": "Kd", "setting": "Estrogen receptor [2]", "value": "> 1000", "unit": "nM"}]}]}
